Data published in patent US20070281922A1, “1-Sulfonylindazolylamine and - amide derivatives as 5-hydroxytryptamine-6 ligands” (Wyeth, priority 2006, published 2007).
Where a name gives a salt, the structure may show the parent alone.

Target: T1, human cloned 5-HT6 receptors (Homo sapiens, UniProt P50406)
T1 construct: expressed in transfected cells; host or cells: HeLa cells
Experiment: 5-HT6 binding affinity, [3H]-LSD displacement on membranes of Hela cells expressing human cloned 5-HT6 receptors
Conditions: [3H]-LSD 3.0 nM, Hela cell membranes, 120 minutes at room temperature
Description: The affinity of test compounds for the serotonin 5-HT6 receptor was evaluated in the following manner. Cultured Hela cells expressing human cloned 5-HT6 receptors were harvested and centrifuged at low speed (1,000×g) for 10.0 minutes to remove the culture media. The harvested cells were suspended in half volume of fresh physiological phosphate buffered saline solution and recentrifuged at the same speed. This operation was repeated. The collected cells were then homogenized in ten volumes of 50 mM Tris.HCl (pH 7.4) and 0.5 mM EDTA. The homogenate was centrifuged at 40,000×g for 30.0 min and the precipitate was collected. The obtained pellet was resuspended in 10 volumes of Tris.HCl buffer and recentrifuged at the same speed. The final pellet was suspended in a small volume of Tris.HCl buffer and the tissue protein content was determined in aliquots of 10-25 μl volumes. Bovine Serum Albumin was used as the standard in the protein determination according to the method described in Lowry et al., J. Biol. Chem., 193: 265 (1951).
The volume of the suspended cell membranes was adjusted to give a tissue protein concentration of 1.0 mg/ml of suspension. The prepared membrane suspension (10 times concentrated) was aliquoted in 1.0 ml volumes and stored at −70° C. until used in subsequent binding experiments.
Binding experiments were performed in a 96 well microtiter plate format, in a total volume of 200 μl. […] The test compounds were added in 20.0 μl volume.
The reaction was allowed to proceed in the dark for 120 minutes at room temperature, at which time, the bound ligand-receptor complex was filtered off on a 96 well unifilter with a Packard Filtermate® 196 Harvester. The bound complex caught on the filter disk was allowed to air dry and the radioactivity is measured in a Packard TopCount® equipped with six photomultiplier detectors, after the addition of 40.0 μl Microscint®-20 scintillant to each shallow well. The unifilter plate was heat-sealed and counted in a PackardTopCount® with a tritium efficiency of 31.0%.
Binding in the presence of varying concentrations of test compound was expressed as a percentage of specific binding in the absence of test compound. The results were plotted as log % bound versus log concentration of test compound. […] A linear regression line of data points was plotted, from which the IC50 value is determined and the Ki value is determined based upon the following equation: […]
where L was the concentration of the radioactive ligand used and KD is the dissociation constant of the ligand for the receptor, both expressed in nM.

T1 sequence (P50406 whole entry): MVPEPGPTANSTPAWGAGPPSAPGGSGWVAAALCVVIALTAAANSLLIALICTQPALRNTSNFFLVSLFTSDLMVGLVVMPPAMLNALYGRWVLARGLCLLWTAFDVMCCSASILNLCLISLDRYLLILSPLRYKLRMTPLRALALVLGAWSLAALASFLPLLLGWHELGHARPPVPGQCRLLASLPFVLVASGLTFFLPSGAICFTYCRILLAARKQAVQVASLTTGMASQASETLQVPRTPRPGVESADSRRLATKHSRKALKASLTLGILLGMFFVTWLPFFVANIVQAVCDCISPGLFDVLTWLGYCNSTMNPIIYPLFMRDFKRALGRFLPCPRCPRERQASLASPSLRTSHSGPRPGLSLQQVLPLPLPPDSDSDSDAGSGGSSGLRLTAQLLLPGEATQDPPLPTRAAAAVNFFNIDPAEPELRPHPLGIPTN

Row | SMILES | Ki [nM]
1 | NCCC(=O)Nc1cccc2c1cnn2S(=O)(=O)c1cccc2ccccc12 [Example 5] | 7.9
2 | CCN(CC)CCC(=O)Nc1ccc2cnn(S(=O)(=O)c3cccc4ccccc34)c2c1 [Example 11] | 2.1
3 | O=S(=O)(c1cccc2ccccc12)n1ncc2ccc(NCC3CCNCC3)cc21 [Example 14, [1-(Naphthalene-1-sulfonyl)-1H-indazol-6-yl]-piperidin-4-ylmethyl-amine dihydrochloride] | 18.4
4 | O=C(Nc1ccc2cnn(S(=O)(=O)c3cccc4ccccc34)c2c1)C1CCNCC1 [Example 8] | 2.3

Continued by falling Ki, values first:

Row | Ki [nM] | SMILES
5 | 49.5 | NCCC(=O)Nc1ccc2c(cnn2S(=O)(=O)c2cccc3ccccc23)c1 [Example 6]
6 | 15 | O=C(CCN1CCCCC1)Nc1ccc2cnn(S(=O)(=O)c3cccc4ccccc34)c2c1 [Example 12]
7 | 3.4 | O=C(Nc1ccc2cnn(S(=O)(=O)c3cccc4ccccc34)c2c1)C1CCCNC1 (stereo not shown) [Example 9]
8 | 1.8 | CN(C)CCC(=O)Nc1ccc2cnn(S(=O)(=O)c3cccc4ccccc34)c2c1 [Example 10]
9 | 1.2 | CNCCC(=O)Nc1ccc2cnn(S(=O)(=O)c3cccc4ccccc34)c2c1 [Example 7]
10 | 0.5 | NCCC(=O)Nc1ccc2cnn(S(=O)(=O)c3cccc4ccccc34)c2c1 [Example 4, N^1-[1-(1-naphthylsulfonyl-1-H-indazol-6-yl]beta-alaninamide Hydrochloride]
